Test results taken from PubChem BioAssay (NCI).
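Where inhibition never reached the appropriate level, the endpoint shown equals the highest concentration tested. Otherwise, values were interpolated linearly from a five-concentration, 48-hour dose response in 96-well plates. Here, GI50 denotes the concentration required for 50% inhibition of growth. At the TGI there is no net growth.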

Tests used:
Assay in all cases: growth of human tumour cells (NCI), 48 h
HOP-62 NSCLC = test system: HOP-62 NSCLC
SF-268 CNS = test system: SF-268 CNS
T-47D breast = test system: T-47D breast
DLD-1 colon = test system: DLD-1 colon
DMS 114 small cell lung = test system: DMS 114 small cell lung
DMS 273 small cell lung = test system: DMS 273 small cell lung
HOP-18 NSCLC = test system: HOP-18 NSCLC
KM20L2 colon = test system: KM20L2 colon
LXFL 529 NSCLC = test system: LXFL 529 NSCLC
M19-MEL melanoma = test system: M19-MEL melanoma
SNB-78 CNS = test system: SNB-78 CNS
XF 498 CNS = test system: XF 498 CNS

Compound | TGI (HOP-62 NSCLC) | TGI (SF-268 CNS) | TGI (T-47D breast) | other results
COc1nc(N=P(c2ccccc2)(c2ccccc2)c2ccccc2)cc(=O)[nH]1 | > 100 µM | > 100 µM | > 100 µM | 
CN(C)/N=C(/CC(O)(C(F)(F)F)C(F)(F)F)c1ccc([N+](=O)[O-])cc1 | > 100 µM | > 100 µM | > 100 µM | 
O=C(Cn1c2c(c3ccccc31)CCCC2)N1CCCC1 | > 100 µM |  |  | 
c1ccc(-c2nc3ccccc3n3c(CN4CCCCC4)nnc23)cc1 | > 100 µM | > 100 µM | > 100 µM | 
Cc1ccc(S(=O)(=O)c2ccsc2NC(=O)C(F)(F)F)cc1 | > 100 µM | > 100 µM | > 100 µM | 
CCOCc1c(C)cc(C)c(C2C(C(=O)c3ccccc3)N3c4ccccc4C=CC3C2(C#N)C(=O)OCC)c1C (centres undefined) |  | > 100 µM |  | 
CC1(C)C2CCC(CN)(C2)C1N (centres undefined) | > 100 µM | > 100 µM | > 100 µM | 
O=c1oc2ccccc2cc1-c1csc(Nc2ccc(F)cc2)n1 | 8.22 µM | 9.09 µM | 10.7 µM | 
CCCCCCCCCCCCN(CC(O)C(O)C(OC1OC(CO)C(O)C(O)C1O)C(O)CO)C(=O)CCCCCCCCCCC (centres undefined) | 55.6 µM | 43.6 µM | 62.3 µM | 
O=C(O)C1CCCN(CCc2c[nH]c3ccccc23)C1 (centres undefined) | > 100 µM | > 100 µM | > 100 µM | 
COc1ccc2c(c1)-c1nc(=S)n(CCCN(C)C)c3ccc([N+](=O)[O-])c(c13)N2 | 2.46 µM | 21.7 µM | 40.8 µM | 
N#CC12CNCC1CN=N2 (centres undefined) | > 100 µM | > 100 µM | > 100 µM | 
O=C1CSSCC(=O)Nc2ccccc2N1 | > 100 µM | > 100 µM | > 100 µM | 
OC1(c2ccc(Cl)cc2)C(N2CCCC2)c2ccccc2C2=NCCN21 (centres undefined) | > 100 µM | > 100 µM | 41 µM | 
CC(=O)Oc1cc(Cl)c(C)c2c1[C@H]1CC[C@]3(C)[C@@H](OC(C)=O)CC[C@H]3[C@@H]1CC2 | > 100 µM | > 100 µM | > 100 µM | 
Nc1cccnc1NCC1(CO)CCCC1 | > 100 µM | > 100 µM | > 100 µM | 
N#Cc1c(=O)n(-c2ccccc2)c(O)c2c(N)n[nH]c12 |  | > 100 µM | > 100 µM | 
Cc1ccc([N+](=O)[O-])cc1S(=O)(=O)Nc1ccc(C2=NN(c3ccc([N+](=O)[O-])cc3[N+](=O)[O-])C(c3cccs3)C2)cc1 (centres undefined) | 58.3 µM | 69.9 µM | > 100 µM | 
O=c1[nH]nc(-c2ccccc2)n1-c1ccncc1 | > 100 µM | > 100 µM | > 100 µM | 
CCOC(=O)C1(Cc2ccccc2)C=CN(C(=O)c2ccccc2)C=C1 | > 100 µM | > 100 µM | 78.8 µM | 

Compound | TGI (HOP-62 NSCLC) | TGI (SF-268 CNS) | TGI (T-47D breast) | other results
CCOC(=O)c1c(NC(=O)c2cccs2)sc2c1CCC2 | > 100 µM | > 100 µM | > 100 µM | 
C/C(Cl)=N/OC(=O)Nc1ccc(S(N)(=O)=O)c(C)c1 | 34.9 µM | > 61.3 µM | 9.98 µM | 
NCCCCC(NC(=O)C(N)Cc1ccc(O)cn1)C(=O)O (centres undefined) | > 100 µM | > 100 µM |  | 
Ic1ccc2c(c1)N(c1ccccc1)c1cc(N=c3ccc4nc5ccc(I)cc5n(-c5ccccc5)c-4c3)ccc1N2 | > 100 µM | > 100 µM | > 100 µM | 
COC(=O)CC(c1cn(S(=O)(=O)c2ccc(C)cc2)c2ccccc12)C1C[C@@H](C(=O)OC)N(C(=O)OC(C)(C)C)C1=O (some centres undefined) | > 100 µM | > 100 µM | > 100 µM | 
O=C1CCC2(c3ccccc3)Nc3ccncc3N12 (centres undefined) |  | > 10 µM | > 10 µM | 
CC(C)(C)/C(=N\Nc1nc2ccccc2[nH]1)c1ccccn1 | > 100 µM | > 100 µM | > 100 µM | 
CCOC(=O)c1oc2cc3c(c4c2c1-c1ccccc1N4C)C=CC(C)(C)O3 | 24.7 µM | > 49.3 µM | > 84.4 µM | 
Cc1ccc(/C(Cl)=C/C=C(C#N)C#N)cc1 | 3.88 µM | 21.3 µM | > 100 µM | 
COc1ccccc1N(CN1C(=O)CCC1C(=O)O)C(C)=O (centres undefined) | > 100 µM | > 100 µM | > 100 µM | 
O/N=C/c1ncccc1C1OCCO1 | > 100 µM | > 100 µM |  | TGI (DLD-1 colon): > 100 µM; TGI (DMS 114 small cell lung): > 100 µM; TGI (DMS 273 small cell lung): > 100 µM; TGI (HOP-18 NSCLC): > 100 µM; TGI (KM20L2 colon): > 100 µM; TGI (LXFL 529 NSCLC): > 100 µM; TGI (M19-MEL melanoma): > 100 µM; TGI (SNB-78 CNS): > 100 µM; TGI (XF 498 CNS): > 100 µM
O=C(NC12CC3CC(CC(F)(C3)C1)C2)c1ccccc1 | > 100 µM |  |  | TGI (DLD-1 colon): > 100 µM; TGI (DMS 114 small cell lung): > 100 µM; TGI (DMS 273 small cell lung): > 100 µM; TGI (KM20L2 colon): > 100 µM; TGI (LXFL 529 NSCLC): > 100 µM; TGI (M19-MEL melanoma): > 100 µM; TGI (SNB-78 CNS): > 100 µM; TGI (XF 498 CNS): > 100 µM
CC(C)(C)OC(=O)CN1C(=O)CC1CC(=O)c1ccccc1 (centres undefined) | 34.2 µM | 37.7 µM |  | 
O=c1cc(N2CCNCC2)nc2ccccn12 | > 100 µM | > 100 µM | > 100 µM | 
CN(C)c1ccc(/C=C2/NC(=S)NC2=O)cc1 | > 100 µM | > 100 µM | > 100 µM | 
CC(C)(C)C(=O)OCOP(=O)(OCOC(=O)C(C)(C)C)OCC1OC(n2ccc(=O)[nH]c2=O)C(N=[N+]=[N-])C1O (centres undefined) | 14.5 µM | 17.8 µM | 11.7 µM | 
Cc1cc(C)c2c(O)c(S(=O)(=O)c3ccc(Cl)cc3)c(=O)oc2c1 | > 100 µM | > 100 µM | > 100 µM | 
CC(C)NC(NC(C)C)=C(S(=O)(=O)C(F)(F)C(F)(F)C(F)(F)C(F)(F)F)S(=O)(=O)C(F)(F)C(F)(F)C(F)(F)C(F)(F)F | > 100 µM | > 100 µM | > 100 µM | 
CCC/C=C/c1cc2c(cc1O)CC[C@@H]1[C@@H]2CC[C@]2(C)[C@@H](O)CC[C@@H]12 | 42.6 µM | 42.6 µM | 77.1 µM | GI50 (HOP-62 NSCLC): 21.9 µM
